Literature values as cited in publication PMC10468453, “First-in-human study of a novel cell death tracer [^99mTc]Tc-Duramycin: safety, biodistribution and radiation dosimetry in healthy volunteers” (EJNMMI Radiopharmacy and Chemistry, 2023).

Settings: humans; ref Challapalli et al. [2013]; Doss et al. [2013]; Hoglund et al. [2011]; Kemerink et al. [2003]; Quinn et al. [2016]
Text: We determined the mean effective dose of [^99mTc]Tc-Duramycin as 7.6 µSv/MBq, corresponding to a total effective dose of 3.60 mSv for a patient dose of 473 MBq.

Compound	Effective dose [mSv]
[^99mTc]HYNIC-annexin V: radiolabeled annexin V, a phosphatidylserine-binding protein	5.5
O=C[C@H]([18F])[C@@H](O)[C@H](O)[C@H](O)CO [[^18F]FDG, 2-[^18F]fluoro-2-deoxy-D-glucose]	9.0
O=C1C(=O)N(Cc2cn(CC[18F])nn2)c2ccc(S(=O)(=O)N3CCCC3COc3ccc(F)cc3F)cc21 (stereo not drawn) [[^18F]ICMT-11]	12.5
